In the supplement of paper PMC4862054:

The molecules below were run on MDA-MB-453 (assay: normalised viability (% of control), CellTiter-Blue; higher = more viable cells (about 100 = DMSO control)). Conditions: 30 nM; incubation time: 72 h.
Method in brief: (§1)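 Seeded at 20 µl suspension per well onto compound-loaded 384-well plates, breast cancer cell lines were incubated 72 h. CellTiter-Blue fluorescence at 560/590 nm was then read, with each plate normalised to vehicle (100) and a positive kill control (0). Normalised viability is reported at a single listed concentration of the series.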

Row | Compound | normalised viability [%]
1 | CCN(CC)CCOc1ccc(C(=C(Cl)c2ccccc2)c2ccccc2)cc1 [Clomifene] | 114
2 | C[C@@H]1C[C@H]2[C@@H]3CCC4=CC(=O)C=C[C@]4(C)[C@@]3(F)[C@@H](O)C[C@]2(C)[C@@]1(O)C(=O)CO [Dexamethasone] | 78.2
3 | CC(C)C(=O)Nc1ccc([N+](=O)[O-])c(C(F)(F)F)c1 [Flutamide] | 94.8
4 | NC(=O)NO [Hydroxyurea] | 124
5 | O=NN(CCCl)C(=O)NC1CCCCC1 [Lomustine] | 102

Same assay, conditions: 100 nM; incubation time: 72 h

Row | Compound | normalised viability [%]
6 | Nc1nc(Cl)nc2c1ncn2[C@@H]1O[C@H](CO)[C@@H](O)[C@@H]1F [Clofarabine] | 97.9
7 | CCN(CC)CCOc1ccc(C(=C(Cl)c2ccccc2)c2ccccc2)cc1 [Clomifene] | 104
8 | C[C@@H]1C[C@H]2[C@@H]3CCC4=CC(=O)C=C[C@]4(C)[C@@]3(F)[C@@H](O)C[C@]2(C)[C@@]1(O)C(=O)CO [Dexamethasone] | 76.3
9 | CC(C)C(=O)Nc1ccc([N+](=O)[O-])c(C(F)(F)F)c1 [Flutamide] | 107
10 | O=NN(CCCl)C(=O)NC1CCCCC1 [Lomustine] | 94.7

Same assay, conditions: 300 nM; incubation time: 72 h

Row | Compound | normalised viability [%]
11 | NC(=O)NO [Hydroxyurea] | 102

Same assay, conditions: 1000 nM; incubation time: 72 h

Row | Compound | normalised viability [%]
12 | NC(=O)NO [Hydroxyurea] | 116

What follows are molecules tested on MDA-MB-468 in the same assay as above. Conditions: 1 nM; incubation time: 72 h.
Method in brief: as §1

Row | Compound | normalised viability [%]
13 | COc1cc2c(Oc3ccc(NC(=O)C4(C(=O)Nc5ccc(F)cc5)CC4)cc3F)ccnc2cc1OCCCN1CCOCC1 [Foretinib] | 102
14 | O=C(O)CC[C@H]1CC[C@@](c2cc(F)ccc2F)(S(=O)(=O)c2ccc(Cl)cc2)CC1 [MK-0752] | 98.9

Same assay, conditions: 10 nM; incubation time: 72 h

Row | Compound | normalised viability [%]
15 | Nc1nc(Cl)nc2c1ncn2[C@@H]1O[C@H](CO)[C@@H](O)[C@@H]1F [Clofarabine] | 98.5
16 | CCN(CC)CCOc1ccc(C(=C(Cl)c2ccccc2)c2ccccc2)cc1 [Clomifene] | 98.2
17 | C[C@@H]1C[C@H]2[C@@H]3CCC4=CC(=O)C=C[C@]4(C)[C@@]3(F)[C@@H](O)C[C@]2(C)[C@@]1(O)C(=O)CO [Dexamethasone] | 114
18 | CC(C)C(=O)Nc1ccc([N+](=O)[O-])c(C(F)(F)F)c1 [Flutamide] | 97.6
19 | O=NN(CCCl)C(=O)NC1CCCCC1 [Lomustine] | 100

Same assay, conditions: 100 nM; incubation time: 72 h

Row | Compound | normalised viability [%]
20 | COc1cc2c(Oc3ccc(NC(=O)C4(C(=O)Nc5ccc(F)cc5)CC4)cc3F)ccnc2cc1OCCCN1CCOCC1 [Foretinib] | 111
21 | NC(=O)NO [Hydroxyurea] | 110
22 | O=C(O)CC[C@H]1CC[C@@](c2cc(F)ccc2F)(S(=O)(=O)c2ccc(Cl)cc2)CC1 [MK-0752] | 94.9

Same assay, conditions: 1000 nM; incubation time: 72 h

Row | Compound | normalised viability [%]
23 | Nc1nc(Cl)nc2c1ncn2[C@@H]1O[C@H](CO)[C@@H](O)[C@@H]1F [Clofarabine] | 39.5
24 | CCN(CC)CCOc1ccc(C(=C(Cl)c2ccccc2)c2ccccc2)cc1 [Clomifene] | 98.1
25 | C[C@@H]1C[C@H]2[C@@H]3CCC4=CC(=O)C=C[C@]4(C)[C@@]3(F)[C@@H](O)C[C@]2(C)[C@@]1(O)C(=O)CO [Dexamethasone] | 112
26 | CC(C)C(=O)Nc1ccc([N+](=O)[O-])c(C(F)(F)F)c1 [Flutamide] | 103
27 | COc1cc2c(Oc3ccc(NC(=O)C4(C(=O)Nc5ccc(F)cc5)CC4)cc3F)ccnc2cc1OCCCN1CCOCC1 [Foretinib] | 52.4
28 | O=NN(CCCl)C(=O)NC1CCCCC1 [Lomustine] | 98.1
29 | O=C(O)CC[C@H]1CC[C@@](c2cc(F)ccc2F)(S(=O)(=O)c2ccc(Cl)cc2)CC1 [MK-0752] | 110

Same assay, conditions: 10000 nM; incubation time: 72 h

Row | Compound | normalised viability [%]
30 | Nc1nc(Cl)nc2c1ncn2[C@@H]1O[C@H](CO)[C@@H](O)[C@@H]1F [Clofarabine] | 20.5
31 | CCN(CC)CCOc1ccc(C(=C(Cl)c2ccccc2)c2ccccc2)cc1 [Clomifene] | 6.16
32 | C[C@@H]1C[C@H]2[C@@H]3CCC4=CC(=O)C=C[C@]4(C)[C@@]3(F)[C@@H](O)C[C@]2(C)[C@@]1(O)C(=O)CO [Dexamethasone] | 100
33 | CC(C)C(=O)Nc1ccc([N+](=O)[O-])c(C(F)(F)F)c1 [Flutamide] | 111
34 | NC(=O)NO [Hydroxyurea] | 111
35 | O=NN(CCCl)C(=O)NC1CCCCC1 [Lomustine] | 95.6

Same assay, conditions: 100000 nM; incubation time: 72 h

Row | Compound | normalised viability [%]
36 | NC(=O)NO [Hydroxyurea] | 108

Each molecule was assayed on MFM-223 in the same assay as above. Conditions: 1 nM; incubation time: 72 h.
Method in brief: as §1

Row | Compound | normalised viability [%]
37 | COc1cc2c(Oc3ccc(NC(=O)C4(C(=O)Nc5ccc(F)cc5)CC4)cc3F)ccnc2cc1OCCCN1CCOCC1 [Foretinib] | 102
38 | O=C(O)CC[C@H]1CC[C@@](c2cc(F)ccc2F)(S(=O)(=O)c2ccc(Cl)cc2)CC1 [MK-0752] | 103

Same assay, conditions: 10 nM; incubation time: 72 h

Row | Compound | normalised viability [%]
39 | Nc1nc(Cl)nc2c1ncn2[C@@H]1O[C@H](CO)[C@@H](O)[C@@H]1F [Clofarabine] | 92.6
40 | CCN(CC)CCOc1ccc(C(=C(Cl)c2ccccc2)c2ccccc2)cc1 [Clomifene] | 102
41 | C[C@@H]1C[C@H]2[C@@H]3CCC4=CC(=O)C=C[C@]4(C)[C@@]3(F)[C@@H](O)C[C@]2(C)[C@@]1(O)C(=O)CO [Dexamethasone] | 93.4
42 | CC(C)C(=O)Nc1ccc([N+](=O)[O-])c(C(F)(F)F)c1 [Flutamide] | 89.4
43 | O=NN(CCCl)C(=O)NC1CCCCC1 [Lomustine] | 84.7

Same assay, conditions: 100 nM; incubation time: 72 h

Row | Compound | normalised viability [%]
44 | COc1cc2c(Oc3ccc(NC(=O)C4(C(=O)Nc5ccc(F)cc5)CC4)cc3F)ccnc2cc1OCCCN1CCOCC1 [Foretinib] | 58.5
45 | NC(=O)NO [Hydroxyurea] | 105
46 | O=C(O)CC[C@H]1CC[C@@](c2cc(F)ccc2F)(S(=O)(=O)c2ccc(Cl)cc2)CC1 [MK-0752] | 94.3

Same assay, conditions: 1000 nM; incubation time: 72 h

Row | Compound | normalised viability [%]
47 | Nc1nc(Cl)nc2c1ncn2[C@@H]1O[C@H](CO)[C@@H](O)[C@@H]1F [Clofarabine] | 85.3
48 | CCN(CC)CCOc1ccc(C(=C(Cl)c2ccccc2)c2ccccc2)cc1 [Clomifene] | 106
49 | C[C@@H]1C[C@H]2[C@@H]3CCC4=CC(=O)C=C[C@]4(C)[C@@]3(F)[C@@H](O)C[C@]2(C)[C@@]1(O)C(=O)CO [Dexamethasone] | 94.2
50 | CC(C)C(=O)Nc1ccc([N+](=O)[O-])c(C(F)(F)F)c1 [Flutamide] | 84.8
51 | COc1cc2c(Oc3ccc(NC(=O)C4(C(=O)Nc5ccc(F)cc5)CC4)cc3F)ccnc2cc1OCCCN1CCOCC1 [Foretinib] | 35
52 | O=NN(CCCl)C(=O)NC1CCCCC1 [Lomustine] | 87.9
53 | O=C(O)CC[C@H]1CC[C@@](c2cc(F)ccc2F)(S(=O)(=O)c2ccc(Cl)cc2)CC1 [MK-0752] | 97.9

Same assay, conditions: 10000 nM; incubation time: 72 h

Row | Compound | normalised viability [%]
54 | Nc1nc(Cl)nc2c1ncn2[C@@H]1O[C@H](CO)[C@@H](O)[C@@H]1F [Clofarabine] | 86.2
55 | CCN(CC)CCOc1ccc(C(=C(Cl)c2ccccc2)c2ccccc2)cc1 [Clomifene] | 28.3
56 | C[C@@H]1C[C@H]2[C@@H]3CCC4=CC(=O)C=C[C@]4(C)[C@@]3(F)[C@@H](O)C[C@]2(C)[C@@]1(O)C(=O)CO [Dexamethasone] | 87.2
57 | CC(C)C(=O)Nc1ccc([N+](=O)[O-])c(C(F)(F)F)c1 [Flutamide] | 109
58 | NC(=O)NO [Hydroxyurea] | 98.8
